In the supplement of paper PMC8967900:

Experiments:
Test in all cases: selective drug sensitivity score (sDSS, relative to normal bone marrow) (sDSS (score)); higher = more potent and effective on the cell line relative to normal bone marrow cells
Details in all cases: 72 h
KOPN-8 = tested on: KOPN-8
MOLT-4 = tested on: MOLT-4
MHH-CALL-4 = tested on: MHH-CALL-4
MN-60 = tested on: MN-60
CCRF-HSB2 = tested on: CCRF-HSB2
SUP-B15 = tested on: SUP-B15
MOLT-14 = tested on: MOLT-14
SEM cells = tested on: SEM cells
TANOUE = tested on: TANOUE
KASUMI-9 = tested on: KASUMI-9
COG-LL-355h = tested on: COG-LL-355h
HAL-01 = tested on: HAL-01
P30-OHKUBO = tested on: P30-OHKUBO
MHH-CALL-2 = tested on: MHH-CALL-2
HPB-ALL = tested on: HPB-ALL
MOLT-16 = tested on: MOLT-16
PEER = tested on: PEER
NALL-1 = tested on: NALL-1
KARPAS-45 = tested on: KARPAS-45
REH = tested on: REH
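Also: ALL cell lines in 384-well plates, five doses spanning 10,000-fold, each plate scaled between vehicle and 100 µmol/L benzalkonium chloride controls, sDSS an adapted area-under-curve metric.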

Structure (SMILES)	selective drug sensitivity score (KOPN-8)	selective drug sensitivity score (MOLT-4)	selective drug sensitivity score (MHH-CALL-4)	selective drug sensitivity score (MN-60)	selective drug sensitivity score (CCRF-HSB2)	selective drug sensitivity score (SUP-B15)	selective drug sensitivity score (MOLT-14)	selective drug sensitivity score (SEM cells)	selective drug sensitivity score (TANOUE)	selective drug sensitivity score (KASUMI-9)	selective drug sensitivity score (COG-LL-355h)	selective drug sensitivity score (HAL-01)	selective drug sensitivity score (P30-OHKUBO)	selective drug sensitivity score (MHH-CALL-2)	selective drug sensitivity score (HPB-ALL)	selective drug sensitivity score (MOLT-16)	selective drug sensitivity score (PEER)	selective drug sensitivity score (NALL-1)	selective drug sensitivity score (KARPAS-45)	selective drug sensitivity score (REH)
COC12C(COC(N)=O)C3=C(C(=O)C(C)=C(N)C3=O)N1CC1NC12 (stereo in doubt) [Mitomycin_C] (top concentration 10000 nM)	4.24	-2.86	-1.66	-2.86	-2.86	1.24	-2.86	3.84	-2.86	4.04	0.44	0.74	2.24	1.54	-1.16	-2.86	-2.86	-2.86	-2.86	3.74
Cc1c(-c2c(-c3ccc(F)o3)sc3ncnc(O[C@H](Cc4ccccc4OCc4ccnn4CC(F)(F)F)C(=O)O)c23)ccc(OCCN2CCN(C)CC2)c1Cl (top concentration 1000 nM)	13.4	-2.84	-4.64	-7.74	-5.14	6.36	3.06	-6.44	-7.74	-1.84	4.66	-7.74	1.26	-6.04	-2.44	7.46	-0.14	-7.74	-0.24	-6.84
Cc1ncc(Cl)cc1NCc1ccc(C(=O)N[C@@H](CC2CCCC2)C(=O)NC2CC2)s1 (top concentration 5000 nM)	2.96	3.26	-0.94	-0.94	0.66	3.46	2.96	-0.94	-0.94	-0.84	2.26	1.16	-0.94	-0.24	1.36	3.96	-0.24	-0.94	-0.94	-0.84
CCn1c(-c2nonc2N)nc2c(C#CC(C)(C)O)ncc(OC[C@H]3CCCNC3)c21 (top concentration 10000 nM)	7.08	8.68	2.98	0.08	0.88	-0.32	1.68	5.28	-1.12	0.98	8.98	-0.62	3.88	3.48	3.98	11.6	1.68	-0.32	6.28	12.9
CN(c1ncccc1CNc1nc(Nc2ccc3c(c2)CC(=O)N3)ncc1C(F)(F)F)S(C)(=O)=O (top concentration 10000 nM)	1.02	1.02	-0.78	-1.08	1.42	4.62	-0.08	7.22	-3.98	0.12	0.82	-0.18	2.72	-1.28	-1.18	2.82	7.22	2.42	2.72	5.12
CNc1ncc2cc(-c3cc(NC(=O)NCCC(C)(C)C)c(F)cc3C)c(C)nc2n1 (top concentration 10000 nM)	21.3	6.26	8.96	-0.94	20.2	16.1	12.5	5.66	-2.84	9.16	9.16	4.66	5.86	9.76	2.46	5.06	15	4.96	5.26	-2.24
C[C@@]1(C(=O)Nc2ccc(F)nc2)CCCN1c1nc(Nc2cc(C3CC3)n[nH]2)c2cccn2n1 (top concentration 10000 nM)	4.68	8.68	4.58	-4.62	12.1	8.98	12.7	8.98	-6.52	8.08	12.1	2.58	11.2	11.7	8.28	12.5	11.2	8.98	6.18	9.08
Cc1nc(Nc2n[nH]c3c2CN(C(=O)N[C@H](CN(C)C)c2ccccc2)C3(C)C)c2sccc2n1 (top concentration 10000 nM)	18.3	-1.22	0.88	5.08	11.1	12.8	7.18	2.28	-11.1	11.6	3.98	-10.5	12	0.38	-1.72	22.7	-3.12	-7.42	9.48	-3.72
Cn1cc(-c2[nH]c3cc(NC(=O)[C@H](N)C4CCCCC4)cc4c3c2C=NNC4=O)cn1 (top concentration 10000 nM)	7.38	3.38	0.88	-1.82	6.98	6.58	2.68	7.28	-5.22	7.88	1.98	-6.52	9.08	3.48	9.68	9.68	5.68	4.58	6.78	10.2
Cn1cc(-c2ccc(F)c(C(F)(F)F)c2)nc1C1CCN(c2ncnc3[nH]ncc23)CC1 (top concentration 10000 nM)	9.76	0.36	1.86	-0.14	-0.14	8.76	-0.14	-0.14	0.96	0.66	-0.14	1.66	-0.14	0.26	-0.14	0.36	1.66	0.46	0.06	-0.14
O=C(Nc1ccc2[nH]nc(-c3ccncc3)c2c1)[C@@H]1CCN(CC(=O)N2CCN(c3ccc(-c4ncccn4)cc3)CC2)C1 (top concentration 10000 nM)	12.9	-3.04	3.96	-3.64	3.26	12.6	8.56	-2.64	-4.64	0.36	6.26	0.06	-3.74	1.26	-0.44	1.06	2.16	-4.14	-0.84	4.86
CC(C)(C)c1cc(NC(=O)Nc2ccc(Oc3ccnc4[nH]c(=O)cnc34)cc2F)n(-c2ccccc2)n1 (top concentration 25000 nM)	2.22	-2.98	0.42	0.42	3.12	10.6	-4.58	11.4	-5.68	-1.18	1.92	2.02	-0.08	-1.48	1.12	-1.08	5.32	-0.38	-1.48	-0.78
Nc1ncnc2c1nc(N)n2[C@@H]1O[C@H](CO)[C@@H](O)[C@H]1O [8-amino-adenosine] (top concentration 50000 nM)	7.48	-2.52	2.18	1.58	6.98	7.28	5.18	5.08	0.98	7.08	-1.42	7.08	6.18	3.28	-3.82	5.68	5.98	2.08	-3.32	2.88
CC(C)[C@@H](CS(=O)(=O)C(C)C)N1C(=O)[C@@](C)(CC(=O)O)C[C@H](c2cccc(Cl)c2)[C@H]1c1ccc(Cl)cc1 [AMG-232] (top concentration 10000 nM)	10.4	10.1	10.9	3.16	9.26	16.5	10.1	-8.34	-10.5	13.1	8.76	11	8.96	11.7	-9.34	8.06	-6.94	-8.14	-8.34	8.36
CC(C)[C@H](C(=O)Nc1ccc(C(=O)NO)cc1)c1ccccc1 [AR-42] (top concentration 10000 nM)	10.6	7.08	8.08	1.48	7.28	9.58	8.48	9.08	-4.22	8.08	6.68	3.28	5.18	11	9.78	8.38	9.18	3.68	10.8	5.38
O=C(Nc1c[nH]nc1-c1nc2ccc(CN3CCOCC3)cc2[nH]1)NC1CC1 [AT9283] (top concentration 1000 nM)	10.3	3.72	4.92	1.02	11.4	12.6	13.8	14.7	-4.38	10.7	6.22	1.92	16	3.42	-1.48	8.22	15.9	9.02	9.22	11.6
CCN(CCO)CCCOc1ccc2c(Nc3cc(CC(=O)Nc4cccc(F)c4)[nH]n3)ncnc2c1 [AZD1152-HQPA] (top concentration 1000 nM)	12.1	13.5	2.04	-2.46	23.5	22.2	17.8	15.7	-3.06	17.1	8.84	-4.46	24.7	6.64	4.34	27.7	21.8	9.54	24.7	17.2
Cc1[nH]nc(C(F)(F)F)c1Cc1sc2c(c1C(=O)N1C[C@](C)(O)CO1)c(=O)n(C)c(=O)n2C(C)C [AZD3965] (top concentration 1000 nM)	0	0	0	0.9	0	7.1	0	0	2.6	2.7	0	1	1.8	1.4	0.1	0	0	3.8	0	3.6
